Data as given in ChEMBL document CHEMBL5518215, “Unlocking Antibacterial Potential: Key-Site-Based Regulation of Antibacterial Spectrum of Peptides” (J Med Chem, 2024).

Assays:
Escherichia coli [1] = assay: Antimicrobial activity against Escherichia coli 25922 assessed as absence bacterial growth measured after 18 to 24 hrs incubation by NCCLS method; format: functional; conditions: time 18-24 hrs
Escherichia coli [2] = assay: Antimicrobial activity against Escherichia coli K88 assessed as absence bacterial growth measured after 18 to 24 hrs incubation by NCCLS method; format: functional; conditions: time 18-24 hrs
Salmonella typhimurium [3] = assay: Antimicrobial activity against Salmonella typhimurium 14028 assessed as absence bacterial growth measured after 18 to 24 hrs incubation by NCCLS method; format: functional, Salmonella enterica subsp. enterica serovar Typhimurium; conditions: Salmonella enterica, time 18-24 hrs
[4] = Antimicrobial activity against Salmonella pullorum C7913 assessed as absence bacterial growth measured after 18 to 24 hrs incubation by NCCLS method; format: functional, Salmonella enterica subsp. enterica serovar Pullorum; conditions: Salmonella enterica, time 18-24 hrs
Pseudomonas aeruginosa [5] = assay: Antimicrobial activity against Pseudomonas aeruginosa 27853 assessed as absence bacterial growth measured after 18 to 24 hrs incubation by NCCLS method; format: functional; conditions: time 18-24 hrs
Acinetobacter baumannii [6] = assay: Antimicrobial activity against Acinetobacter baumannii 1.6769 assessed as absence bacterial growth measured after 18 to 24 hrs incubation by NCCLS method; format: functional; conditions: time 18-24 hrs
Enterococcus faecalis [7] = assay: Antimicrobial activity against Enterococcus faecalis 29212 assessed as absence bacterial growth measured after 18 to 24 hrs incubation by NCCLS method; format: functional; conditions: time 18-24 hrs
Listeria monocytogenes [8] = assay: Antimicrobial activity against Listeria monocytogenes 1.10753 assessed as absence bacterial growth measured after 18 to 24 hrs incubation by NCCLS method; format: functional; conditions: time 18-24 hrs
Bacillus cereus [9] = assay: Antimicrobial activity against Bacillus cereus 1.932 assessed as absence bacterial growth measured after 18 to 24 hrs incubation by NCCLS method; format: functional; conditions: time 18-24 hrs
Staphylococcus aureus [10] = assay: Antimicrobial activity against Staphylococcus aureus 29213 assessed as absence bacterial growth measured after 18 to 24 hrs incubation by NCCLS method; format: functional; conditions: time 18-24 hrs
Staphylococcus aureus [11] = assay: Antimicrobial activity against Methicillin-resistant Staphylococcus aureus 43300 assessed as absence bacterial growth measured after 18 to 24 hrs incubation by NCCLS method; format: functional; conditions: time 18-24 hrs
[12] = tested on: Staphylococcus epidermidis; assay: Antimicrobial activity against Staphylococcus epidermidis 12228 assessed as absence bacterial growth measured after 18 to 24 hrs incubation by NCCLS method; format: functional; conditions: time 18-24 hrs
Staphylococcus aureus [13] = assay: Antimicrobial activity against Staphylococcus aureus 29213 assessed as absence bacterial growth measured after 18 to 24 hrs incubation by NCCLS m; format: functional; conditions: time 18-24 hrs
Escherichia coli [14] = assay: Antimicrobial activity against Escherichia coli 25922 assessed as bacterial killing measured after 16 hrs incubation; format: functional
Escherichia coli [15] = assay: Antimicrobial activity against Escherichia coli K88 assessed as bacterial killing measured after 16 hrs incubation; format: functional
Salmonella typhimurium [16] = assay: Antimicrobial activity against Salmonella typhimurium 14028 assessed as bacterial killing measured after 16 hrs incubation; format: functional, Salmonella enterica subsp. enterica serovar Typhimurium; conditions: Salmonella enterica
Salmonella typhimurium [17] = assay: Antimicrobial activity against Salmonella typhimurium C7731 assessed as bacterial killing measured after 16 hrs incubation; format: functional, Salmonella enterica subsp. enterica serovar Typhimurium; conditions: Salmonella enterica
[18] = Antimicrobial activity against Salmonella pullorum C7913 assessed as bacterial killing measured after 16 hrs incubation; format: functional, Salmonella enterica subsp. enterica serovar Pullorum; conditions: Salmonella enterica
Pseudomonas aeruginosa [19] = assay: Antimicrobial activity against Pseudomonas aeruginosa 27853 assessed as bacterial killing measured after 16 hrs incubation; format: functional
Acinetobacter baumannii [20] = assay: Antimicrobial activity against Acinetobacter baumannii 1.6769 assessed as bacterial killing measured after 16 hrs incubation; format: functional
Enterococcus faecalis [21] = assay: Antimicrobial activity against Enterococcus faecalis 29212 assessed as bacterial killing measured after 16 hrs incubation; format: functional
Listeria monocytogenes [22] = assay: Antimicrobial activity against Listeria monocytogenes 1.10753 assessed as bacterial killing measured after 16 hrs incubation; format: functional
Bacillus cereus [23] = assay: Antimicrobial activity against Bacillus cereus 1.932 assessed as bacterial killing measured after 16 hrs incubation; format: functional
Staphylococcus aureus [24] = assay: Antimicrobial activity against Staphylococcus aureus 29213 assessed as bacterial killing measured after 16 hrs incubation; format: functional
Staphylococcus aureus [25] = assay: Antimicrobial activity against Methicillin-resistant Staphylococcus aureus 43300 assessed as bacterial killing measured after 16 hrs incubation; format: functional
[26] = tested on: Staphylococcus epidermidis; assay: Antimicrobial activity against Staphylococcus epidermidis 12228 assessed as bacterial killing measured after 16 hrs incubation; format: functional
Staphylococcus aureus [27] = assay: Antimicrobial activity against Staphylococcus aureus 25923 assessed as bacterial killing measured after 16 hrs incubation; format: functional
Salmonella typhimurium [28] = assay: Antimicrobial activity against Salmonella typhimurium C7731 assessed as absence bacterial growth measured after 18 to 24 hrs incubation by NCCLS method; format: functional, Salmonella enterica subsp. enterica serovar Typhimurium; conditions: Salmonella enterica, time 18-24 hrs
Escherichia coli [29] = assay: Antimicrobial activity against Escherichia coli 25922 assessed as absence bacterial growth measured after 18 to 24 hrs incubation in presence of 50% serum by NCCLS method; format: functional; conditions: time 18-24 hrs
Escherichia coli [30] = assay: Antimicrobial activity against Escherichia coli 25922 assessed as absence bacterial growth measured after 18 to 24 hrs incubation in presence of 25% serum by NCCLS method; format: functional; conditions: time 18-24 hrs
Escherichia coli [31] = assay: Antimicrobial activity against Escherichia coli 25922 assessed as absence bacterial growth measured after 18 to 24 hrs incubation in presence of 12.5% serum by NCCLS method; format: functional; conditions: time 18-24 hrs
Escherichia coli [32] = assay: Antimicrobial activity against Escherichia coli 25922 assessed as absence bacterial growth measured after 18 to 24 hrs incubation in presence of NaCl by NCCLS method; format: functional; conditions: time 18-24 hrs
Escherichia coli [33] = assay: Antimicrobial activity against Escherichia coli 25922 assessed as absence bacterial growth measured after 18 to 24 hrs incubation in presence of KCl by NCCLS method; format: functional; conditions: time 18-24 hrs
Escherichia coli [34] = assay: Antimicrobial activity against Escherichia coli 25922 assessed as absence bacterial growth measured after 18 to 24 hrs incubation in presence of NH4Cl by NCCLS method; format: functional; conditions: time 18-24 hrs
Escherichia coli [35] = assay: Antimicrobial activity against Escherichia coli 25922 assessed as absence bacterial growth measured after 18 to 24 hrs incubation in presence of MgCl2 by NCCLS method; format: functional; conditions: time 18-24 hrs
Escherichia coli [36] = assay: Antimicrobial activity against Escherichia coli 25922 assessed as absence bacterial growth measured after 18 to 24 hrs incubation in presence of ZnCl2 by NCCLS method; format: functional; conditions: time 18-24 hrs
Escherichia coli [37] = assay: Antimicrobial activity against Escherichia coli 25922 assessed as absence bacterial growth measured after 18 to 24 hrs incubation in presence of FeCl3 by NCCLS method; format: functional; conditions: time 18-24 hrs
Erythrocyte = assay: Hemolytic activity in human RBC at effective concentration measured after 1 hr by microplate reader analysis; format: toxicity, cell-based
[38] = Cytotoxicity against mouse RAW264.7 cells assessed as cell survival rate measured after 8 hrs by MTT assay; format: toxicity, cell-based
[39] = Cytotoxicity against human HEK-293T cells assessed as cell survival rate measured after 8 hrs by MTT assay; format: toxicity, cell-based
[40] = Cytotoxicity against porcine IPEC-J2 cells assessed as cell survival rate measured after 8 hrs by MTT assay; format: toxicity, cell-based, Sus scrofa; conditions: pig

H-GKLWLKGVKLWLKGGKLWLKG-NH2
4 µM: MIC (Pseudomonas aeruginosa [5]) | MIC (Enterococcus faecalis [7]) | MIC (Bacillus cereus [9]) | MIC (Staphylococcus aureus [10]) | MBC (Pseudomonas aeruginosa [19]) | MBC (Acinetobacter baumannii [20]) | MBC (Enterococcus faecalis [21]) | MBC (Bacillus cereus [23]) | MBC (Staphylococcus aureus [24]) | MBC [26] | MBC (Staphylococcus aureus [27]) | MIC (Salmonella typhimurium [28]) | MIC (Escherichia coli [32]) | MIC (Escherichia coli [35])
128 µM: HC10 (Erythrocyte)
> 32 µM: MIC (Listeria monocytogenes [8]) | MBC (Listeria monocytogenes [22]) | MIC (Escherichia coli [29]) | MIC (Escherichia coli [30])
8 µM: MBC (Salmonella typhimurium [17])
16 µM: MIC (Escherichia coli [31])
8.73 µM: IC50 at 8 h [40]
2 µM: MIC (Salmonella typhimurium [3]) | MIC (Staphylococcus aureus [11]) | MIC [12] | MIC (Staphylococcus aureus [13]) | MBC (Salmonella typhimurium [16]) | MBC (Staphylococcus aureus [25])
0.5 µM: MIC (Escherichia coli [2]) | MIC [4] | MBC (Escherichia coli [15]) | MBC [18]
> 64 µM: IC50 at 8 h [39]
61.3 µM: IC50 at 8 h [38]
1 µM: MIC (Escherichia coli [1]) | MIC (Acinetobacter baumannii [6]) | MBC (Escherichia coli [14]) | MIC (Escherichia coli [33]) | MIC (Escherichia coli [34]) | MIC (Escherichia coli [36]) | MIC (Escherichia coli [37])

H-GKLWLKGCKLWLKGGKLWLKG-NH2
16 µM: MBC (Salmonella typhimurium [16]) | MBC (Acinetobacter baumannii [20])
32 µM: MIC (Pseudomonas aeruginosa [5]) | MIC (Staphylococcus aureus [11]) | MBC (Salmonella typhimurium [17]) | MBC (Pseudomonas aeruginosa [19]) | MBC (Staphylococcus aureus [25])
8 µM: MIC (Escherichia coli [1]) | MIC (Salmonella typhimurium [3]) | MIC (Acinetobacter baumannii [6]) | MBC (Escherichia coli [14]) | MIC (Salmonella typhimurium [28]) | MIC (Escherichia coli [33]) | MIC (Escherichia coli [34]) | MIC (Escherichia coli [36]) | MIC (Escherichia coli [37])
> 32 µM: MIC (Enterococcus faecalis [7]) | MIC (Listeria monocytogenes [8]) | MIC (Staphylococcus aureus [10]) | MIC [12] | MIC (Staphylococcus aureus [13]) | MBC (Enterococcus faecalis [21]) | MBC (Listeria monocytogenes [22]) | MBC (Staphylococcus aureus [24]) | MBC [26] | MBC (Staphylococcus aureus [27]) | MIC (Escherichia coli [29]) | MIC (Escherichia coli [30]) | MIC (Escherichia coli [31]) | MIC (Escherichia coli [32]) | MIC (Escherichia coli [35])
4 µM: MIC (Bacillus cereus [9]) | MBC [18] | MBC (Bacillus cereus [23])
> 128 µM: HC10 (Erythrocyte)
2 µM: MIC (Escherichia coli [2]) | MIC [4] | MBC (Escherichia coli [15])
> 64 µM: IC50 at 8 h [38] | IC50 at 8 h [39] | IC50 at 8 h [40]
